Values quoted from earlier work, collected in US20070105793A1, “Compositions and methods using nicotinic acid for treatment of hypercholesterolemia, hyperlipidemia nd cardiovascular disease” (priority 2005, published 2007).

Legend:
[1] = tested on: β-thromboglobulin; conditions: in vivo
[2] = after ingestion
[3] = in vivo

SMILES	effect on β-thromboglobulin [1]	time of release of niacin into the system by hydrolysis [2]	flush [3]	impact on blood sugar [3]
O=C(O)c1cccnc1 [niacin, nicotinic acid]	does not have a favorable effect on β-thromboglobulin	–	–	–
O=C(O[C@H]1[C@H](OC(=O)c2cccnc2)[C@@H](OC(=O)c2cccnc2)[C@H](OC(=O)c2cccnc2)[C@@H](OC(=O)c2cccnc2)[C@H]1OC(=O)c1cccnc1)c1cccnc1 [IHN, inositol hexanicotinate]	–	around 10 hours	“zero” flush	no negative impact on blood sugar
